Data reported in ChEMBL document CHEMBL5154882, “Discovery of 4-Hydroxyquinazoline Derivatives as Small Molecular BET/PARP1 Inhibitors That Induce Defective Homologous Recombination and Lead to Synthetic Lethality for Triple-Negative Breast Cancer Therapy” (J Med Chem, 2022).
Active and inactive are the calls of the source. No cut-off for these calls is given here.

Experiments:
[1] = biological target: T1, Bromodomain-containing protein 4 (Homo sapiens, UniProt O60885); assay: Inhibition of BRD4 BD2 (unknown origin)
[2] = Oral bioavailability in Sprague-Dawley rat at 10 mg/kg; assay type: ADME, organism-based; settings: in vivo
[3] = Half life in Sprague-Dawley rat at 10 mg/kg, po; assay type: ADME, organism-based; settings: in vivo
[4] = biological target: T1, Bromodomain-containing protein 4; assay: Inhibition of BRD4 BD1 (unknown origin)
[5] = Toxicity in BALB/c nude mouse xenografted with human MDA-MB-468 cells assessed as morphological changes in kidney at 40 to 80 mg/kg, ig administered daily for 16 days measured every 3 days by hematoxyin-eosin staining based analysis; assay type: organism-based; settings: in vivo, po, 384 h, dose 40-80 mg/kg, time 16 day
[6] = AUC (0 to infinity) in Sprague-Dawley rat at 10 mg/kg, po; assay type: ADME, organism-based; set-up: time infinity, dose 10 mg/kg, route po; settings: in vivo
[7] = test system: MDA-MB-231; assay: Antitumor activity against human MDA-MB-231 cells xenografted in BALB/c nude mouse assessed as downregulation of Rad51 at 80 mg/kg by Western blot analysis; assay type: functional, organism-based
[8] = biological target: T2, Poly [ADP-ribose] polymerase 1 (Homo sapiens, UniProt P09874); assay: Inhibition of PARP1 (unknown origin) at 1 uM relative to control
[9] = biological target: T2, Poly [ADP-ribose] polymerase 1; assay: Binding affinity to PARP1 in human MDA-MB-468 cells assessed as increase in thermal stability at 5 uM by cellular thermal shift assay; assay type: cell-based
[10] = test system: MDA-MB-468; assay: Cell cycle arrest in human MDA-MB-468 cells assessed as accumulation at G2/M phase at 10 uM incubated for 72 hrs by propidium iodide staining-based flow cytometry analysis (reference value: 16.1%); assay type: functional
[11] = test system: MDA-MB-231; assay: Antitumor activity against human MDA-MB-231 cells xenografted in BALB/c nude mouse assessed as downregulation of c-Myc at 80 mg/kg by Western blot analysis; assay type: functional, organism-based
[12] = biological target: T2, Poly [ADP-ribose] polymerase 1
[13] = biological target: T1, Bromodomain-containing protein 4; assay: Inhibition of BRD4 (unknown origin) at 1 uM relative to control
[14] = test system: MDA-MB-231; assay: Antitumor activity against human MDA-MB-231 cells xenografted in BALB/c nude mouse assessed as downregulation of CtIP at 80 mg/kg by Western blot analysis; assay type: functional, organism-based
[15] = AUC (0 to infinity) in Sprague-Dawley rat at 1 mg/kg, iv; assay type: ADME, organism-based; set-up: time infinity, dose 1 mg/kg, route iv; settings: in vivo
[16] = test system: MDA-MB-231; assay: Antitumor activity against human MDA-MB-231 cells xenografted in BALB/c nude mouse assessed as reduction in c-Myc expression at 40 to 80 mg/kg incubated for 30 to 40 mins by immunohistochemical analysis; assay type: functional, organism-based; settings: dose 40-80 mg/kg, time 30-40 min
[17] = Toxicity in BALB/c nude mouse xenografted with human MDA-MB-468 cells assessed as morphological changes in spleen at 80 mg/kg, ig administered daily for 16 days measured every 3 days by hematoxyin-eosin staining based analysis; assay type: organism-based; settings: in vivo, po, 384 h, time 16 day
[18] = test system: MDA-MB-468; assay: Induction of apoptosis in human MDA-MB-468 cells assessed as up-regulation of Bax protein level at 20 uM incubated for 72 hrs by Western blot analysis; assay type: functional, cell-based
[19] = Toxicity in BALB/c nude mouse xenografted with human MDA-MB-468 cells assessed as morphological changes in liver at 40 to 80 mg/kg, ig administered daily for 16 days measured every 3 days by hematoxyin-eosin staining based analysis; assay type: organism-based; settings: in vivo, po, 384 h, dose 40-80 mg/kg, time 16 day
[20] = test system: MDA-MB-231; assay: Antitumor activity against human MDA-MB-231 cells xenografted in BALB/c nude mouse assessed as reduction in CtIp expression at 40 to 80 mg/kg incubated for 30 to 40 mins by immunohistochemical analysis; assay type: functional, organism-based; settings: dose 40-80 mg/kg, time 30-40 min
[21] = Toxicity in BALB/c nude mouse xenografted with human MDA-MB-468 cells assessed as morphological changes in heart at 80 mg/kg, ig administered daily for 16 days measured every 3 days by hematoxyin-eosin staining based analysis; assay type: organism-based; settings: in vivo, po, 384 h, time 16 day
[22] = Toxicity in BALB/c nude mouse xenografted with human MDA-MB-468 cells assessed as morphological changes in heart at 40 to 80 mg/kg, ig administered daily for 16 days measured every 3 days by hematoxyin-eosin staining based analysis; assay type: organism-based; settings: in vivo, po, 384 h, dose 40-80 mg/kg, time 16 day
[23] = biological target: T1, Bromodomain-containing protein 4; assay: Inhibition of BRD4 (unknown origin)
[24] = test system: MDA-MB-468; assay: Induction of DNA damage in human MDA-MB-468 cells assessed as up-regulation of gammaH2AX expression level at 5 to 20 uMby DAPI staining based immunofluorescence assay; assay type: functional, cell-based; settings: dose 5-20 µM
[25] = test system: MDA-MB-468; assay: Downregulation of PAR expression level in human MDA-MB-468 cells by Western blot analysis; assay type: functional, cell-based; settings: dose 5-20 µM, DDE = dose-dependent effect
[26] = test system: MDA-MB-231; assay: Antitumor activity against human MDA-MB-231 cells xenografted in BALB/c nude mouse assessed as downregulation of […] downstream protein at 40 mg/kg by Western blot analysis; assay type: functional, organism-based
[27] = Toxicity in BALB/c nude mouse xenografted with human MDA-MB-468 cells assessed as morphological changes in spleen at 40 to 80 mg/kg, ig administered daily for 16 days measured every 3 days by hematoxyin-eosin staining based analysis; assay type: organism-based; settings: in vivo, po, 384 h, dose 40-80 mg/kg, time 16 day
[28] = test system: MDA-MB-231; assay: Antitumor activity against human MDA-MB-231 cells xenografted in BALB/c nude mouse assessed as downregulation of PAR at 80 mg/kg by Western blot analysis; assay type: functional, organism-based
[29] = test system: MDA-MB-231; assay: Antitumor activity against human MDA-MB-231 cells xenografted in BALB/c nude mouse assessed as downregulation of BRD4 downstream protein at 40 mg/kg by Western blot analysis; assay type: functional, organism-based
[30] = Toxicity in BALB/c nude mouse xenografted with human MDA-MB-468 cells assessed as morphological changes in kidney at 80 mg/kg, ig administered daily for 16 days measured every 3 days by hematoxyin-eosin staining based analysis; assay type: organism-based; settings: in vivo, po, 384 h, time 16 day
[31] = test system: MDA-MB-468; assay: Cell cycle arrest in human MDA-MB-468 cells assessed as accumulation at G0/G1 phase at 10 uM incubated for 72 hrs by propidium iodide staining-based flow cytometry analysis (reference value: 61.4%); assay type: functional
[32] = test system: MDA-MB-231; assay: Antitumor activity against human MDA-MB-231 cells xenografted in BALB/c nude mouse assessed as reduction in Rad51 expression at 40 to 80 mg/kg incubated for 30 to 40 mins by immunohistochemical analysis; assay type: functional, organism-based; settings: dose 40-80 mg/kg, time 30-40 min
[33] = Toxicity in BALB/c nude mouse xenografted with human MDA-MB-468 cells assessed as morphological changes in lung at 40 to 80 mg/kg, ig administered daily for 16 days measured every 3 days by hematoxyin-eosin staining based analysis; assay type: organism-based; settings: in vivo, po, 384 h, dose 40-80 mg/kg, time 16 day
[34] = Half life in Sprague-Dawley rat at 1 mg/kg, iv; assay type: ADME, organism-based; settings: in vivo
[35] = test system: MDA-MB-468; assay: Induction of apoptosis in human MDA-MB-468 cells assessed as up-regulation of cleaved caspase 3 protein level at 20 uM incubated for 72 hrs by Western blot analysis; assay type: functional, cell-based
[36] = test system: MDA-MB-468; assay: Cell cycle arrest in human MDA-MB-468 cells assessed as accumulation at S phase at 20 uM incubated for 72 hrs by propidium iodide staining-based flow cytometry analysis (reference value: 21.1%); assay type: functional

T2 sequence (P09874 whole entry): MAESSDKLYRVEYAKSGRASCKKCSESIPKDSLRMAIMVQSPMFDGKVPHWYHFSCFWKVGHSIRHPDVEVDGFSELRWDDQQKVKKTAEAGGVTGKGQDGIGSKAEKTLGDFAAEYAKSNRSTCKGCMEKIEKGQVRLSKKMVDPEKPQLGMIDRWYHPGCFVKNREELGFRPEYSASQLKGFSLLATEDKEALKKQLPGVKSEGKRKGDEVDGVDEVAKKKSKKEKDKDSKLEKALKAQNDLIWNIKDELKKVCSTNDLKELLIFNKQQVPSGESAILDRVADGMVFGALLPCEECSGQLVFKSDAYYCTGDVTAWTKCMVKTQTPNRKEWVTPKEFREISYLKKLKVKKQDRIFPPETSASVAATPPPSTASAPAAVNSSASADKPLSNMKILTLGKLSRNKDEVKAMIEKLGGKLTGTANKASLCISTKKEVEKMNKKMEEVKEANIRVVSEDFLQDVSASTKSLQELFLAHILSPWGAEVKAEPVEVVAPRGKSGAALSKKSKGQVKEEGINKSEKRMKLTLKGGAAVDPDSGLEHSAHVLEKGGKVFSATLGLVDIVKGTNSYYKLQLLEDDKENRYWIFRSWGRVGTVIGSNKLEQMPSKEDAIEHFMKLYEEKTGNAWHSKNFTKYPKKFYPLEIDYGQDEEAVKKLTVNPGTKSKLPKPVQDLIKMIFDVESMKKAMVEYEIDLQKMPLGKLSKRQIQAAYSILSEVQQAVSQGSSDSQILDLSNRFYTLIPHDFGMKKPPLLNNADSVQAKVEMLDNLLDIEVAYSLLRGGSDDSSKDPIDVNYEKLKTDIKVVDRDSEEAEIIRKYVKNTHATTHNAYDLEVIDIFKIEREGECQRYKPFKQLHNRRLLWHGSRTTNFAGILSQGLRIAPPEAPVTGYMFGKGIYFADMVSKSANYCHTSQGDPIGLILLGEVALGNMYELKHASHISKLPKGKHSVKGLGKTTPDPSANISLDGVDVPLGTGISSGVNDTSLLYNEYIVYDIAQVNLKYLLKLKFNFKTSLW

For `COc1cc(OC)c2c(=O)[nH]c(-c3cccc(Cc4n[nH]c(=O)c5ccccc45)c3)nc2c1`, the IC50 [1] was 175 nM, the bioavailability [2] was 23.8% and the half-life [3] was 3.33 h. The IC50 [4] was 251 nM, the Activity [5] was “Non-Toxic” and the AUC(0-inf) [6] was 1530 ng·h/mL. For the same molecule, the Activity [7] was “Active”, the inhibition [8] was 79.2% and the Activity [9] was “Active”. The Activity [10] was 14.5%, the Activity [11] was “Active” and the IC50 [12] was 197 nM. The inhibition [13] was 76.2%, the Activity [14] was “Active” and the AUC(0-inf) [15] was 642 ng·h/mL. The Activity [16] was “Active”, the Activity [17] was “Non-Toxic” and the Activity [18] was “Active”. The Activity [19] was “Non-Toxic”, the Activity [20] was “Active” and the Activity [21] was “Non-Toxic”. For the same molecule, the Activity [22] was “Non-Toxic”, the IC50 [23] was 238 nM and the Activity [24] was “Active”. The Activity [25] was “Dde”, the Activity [26] was “Active” and the Activity [27] was “Non-Toxic”. The Activity [28] was “Active”, the Activity [29] was “Active” and the Activity [30] was “Non-Toxic”. For the same molecule, the Activity [31] was 63.2%, the Activity [32] was “Active” and the Activity [33] was “Non-Toxic”. The t1/2 [34] was 3.02 h, the Activity [35] was “Active” and the Activity [36] was 12.4%.
